{"source": "patent US20150284399A1", "about": "“PROCESSES FOR THE PREPARATION OF S1P1 RECEPTOR MODULATORS AND CRYSTALLINE FORMS THEREOF” (Arena Pharmaceuticals, Inc., priority 2010, published 2015)", "key": {"S1P1 receptor": {"target": "T1, S1P1 receptor (Homo sapiens, UniProt P21453)", "T1 construct": "expressed in transfected cells; host or cells: CHO-K1 (ATCC CCL-61), stably transfected", "T1 sequence (P21453 whole entry)": "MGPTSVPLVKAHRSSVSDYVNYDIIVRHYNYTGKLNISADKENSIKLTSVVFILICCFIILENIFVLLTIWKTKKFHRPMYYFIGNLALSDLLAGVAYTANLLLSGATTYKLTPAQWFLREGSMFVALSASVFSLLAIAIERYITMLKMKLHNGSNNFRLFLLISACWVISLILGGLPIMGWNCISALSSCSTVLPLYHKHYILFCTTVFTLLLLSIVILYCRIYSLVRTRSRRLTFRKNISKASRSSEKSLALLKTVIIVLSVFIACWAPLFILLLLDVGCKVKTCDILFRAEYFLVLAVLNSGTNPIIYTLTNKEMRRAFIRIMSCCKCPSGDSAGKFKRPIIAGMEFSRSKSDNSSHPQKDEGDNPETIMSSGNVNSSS", "assay": "HTRF assay for direct cAMP measurement", "type": "cell-based", "conditions": "recombinant CHO-K1 cells stably transfected with S1P1; agonist detected as decrease of cAMP concentration", "description": "Compounds were screened for agonists of the S1P1 receptor (e.g., human S1P1 receptor) using the HTRF® assay for direct cAMP measurement (Gabriel et al., Assay and Drug Development Technologies, 1:291-303, 2003) and recombinant CHO-K1 cells stably transfected with S1P1. CHO-K1 cells were obtained from ATCC® (Manassas, Va.; Catalog #CCL-61). An agonist of the S1P1 receptor was detected in the HTRF® assay for direct cAMP measurement as a compound which decreased cAMP concentration. HTRF® assay also was used to determine EC50 values for S1P1 receptor agonists.\nHTRF® assay kit was purchased from Cisbio-US, Inc. (Bedford, Mass.; Catalog #62AM4PEC). […] The specific signal (i.e., fluorescence resonance energy transfer, FRET) is inversely proportional to the concentration of unlabeled cAMP in the standard or sample.\nThe fluorescence ratio (665 nm/620 nm) of the standards (0.17 to 712 nM cAMP) included in the assay was calculated and used to generate a cAMP standard curve according to the kit manufacturer's instructions. The fluorescence ratio of the samples (test compound or compound buffer) was calculated and used to deduce respective cAMP concentrations by reference to the cAMP standard curve. […]\nHTRF® readout was accomplished using a PHERAstar (BMG LABTECH Inc., Durham, N.C.) or EnVision™ (PerkinElmer, Fremont Calif.) microplate reader."}, "[1]": {"assay": "Dynamic moisture sorption (DMS)", "type": "physicochemical", "conditions": "crystalline form", "experimental": "Samples are prepared for dynamic moisture-sorption analysis by placing ˜5 mg to ˜20 mg of compound in a tarred sample holder on the VTI balance. The instrument is a dynamic moisture-sorption analyzer, VTI Corporation, SGA-100. A drying step is run at 40° C. and ˜1% RH for 1 h. The isotherm temperature is 25° C. A % weight change over 10 min (5 weight readings) of dm/dt=0.010 or 2 h, whichever occurs first, is required before continuing to the next step. The water content of the sample equilibrated as described above was determined from 30% RH to 90% RH and then back down to 10% RH."}, "Male Sprague-Dawley rats": {"system": "Male Sprague-Dawley rats", "assay": "Rat Peripheral Lymphocyte Lowering (PLL) assay", "type": "in vivo", "conditions": "1.0 mg/kg oral dose in 0.5% methyl cellulose in water; 5 h post-dose; vs vehicle; FIG. 16", "experimental": "Male Sprague-Dawley rats (Charles River Laboratories, Hollister, Calif.) were housed and maintained in humidity (40 to 60%) and temperature (68 to 72° F.) controlled facility on a 12 h: 12 h light/dark cycle (lights on at 6:30 am) with free access to food (Harlan Teklad, Orange, Calif., Rodent Diet 8604) and water. Rats were allowed (approximately) one week of habituation to the animal facility before testing.\nRats were given a 1.0 mg/kg oral dose of (R)-2-(9-chloro-7-(4-isopropoxy-3-(trifluoromethyl)benzyloxy)-2,3-dihydro-1H-pyrrolo[1,2-a]indol-1-yl)acetic acid or dosing vehicle (0.5% methyl cellulose in water) in a total volume of 1 mL/kg. Peripheral blood samples were collected at 5 h post-dose. Blood was collected via indwelling catheter. A complete cell count (CBC), including lymphocyte count, was obtained using a CELL-DYN® 3700 (Abbott Laboratories, Abbott Park, Ill.) instrument. Results are presented in FIG. 16, in which peripheral blood lymphocyte (PBL) count is shown for the 5 hour group."}}, "data": [{"smiles": "CC(C)Oc1ccc(COc2ccc3c(c2)c(Cl)c2n3CC[C@@H]2CC(=O)O)cc1C(F)(F)F", "note": "[(R)-2-(9-chloro-7-(4-isopropoxy-3-(trifluoromethyl)benzyloxy)-2,3-dihydro-1H-pyrrolo[1,2-a]indol-1-yl)acetic acid]", "values": [{"measurement": "EC50", "setting": "S1P1 receptor", "result": 0.028, "unit": "nM"}, {"measurement": "hygroscopicity (DMS)", "setting": "[1]; 10% RH to 90% RH at 25° C.", "result": "non-hygroscopic"}, {"measurement": "DMS weight gain over the full range of % RH tested", "setting": "[1]; 10% RH to 90% RH at 25° C., listed as Crystalline form of (R)-2-(9-chloro-7-(4-isopropoxy-3-(trifluoromethyl)benzyloxy))", "result": "FIG. 3: gains less than about 0.1% weight over the full range"}, {"measurement": "DMS weight gain over the full range of % RH tested", "setting": "[1]; 10% RH to 90% RH at 25° C., listed as crystalline form of (R)-2-(9-chloro-7-(4-isopropoxy-3-(trifluoromethyl)benzyloxy))", "result": "less than 0.1 % weight"}, {"measurement": "DMS maximum weight gain", "setting": "[1]; adsorption phase of the DMS cycle at about 70% RH", "result": "about 0.06%"}, {"measurement": "peripheral blood lymphocyte (PBL) lowering (lymphopenia)", "setting": "Male Sprague-Dawley rats", "result": "exhibited activity for inducing PBL lowering (lymphopenia)"}]}]}
